Our source for the Kd values is ChEMBL document CHEMBL3991601, “The target landscape of clinical kinase drugs” (Science, 2017).

The term Kd denotes the constant that tells how readily two partners part at equilibrium.

The target of test [1] is T1, Pyridoxal kinase (Homo sapiens, UniProt O00764).
T1 sequence (O00764 whole entry): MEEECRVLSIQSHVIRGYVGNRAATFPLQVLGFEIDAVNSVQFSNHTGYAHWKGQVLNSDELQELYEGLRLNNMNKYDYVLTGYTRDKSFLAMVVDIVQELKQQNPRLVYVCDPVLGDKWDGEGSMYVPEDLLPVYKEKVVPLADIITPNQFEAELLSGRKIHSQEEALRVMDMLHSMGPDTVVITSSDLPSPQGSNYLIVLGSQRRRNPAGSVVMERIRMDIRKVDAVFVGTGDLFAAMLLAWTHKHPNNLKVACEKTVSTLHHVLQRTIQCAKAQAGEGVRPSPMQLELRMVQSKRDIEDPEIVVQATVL

Test [2] addresses T2, MAP/microtubule affinity-regulating kinase 4 (Homo sapiens, UniProt Q96L34).
T2 sequence (Q96L34 whole entry): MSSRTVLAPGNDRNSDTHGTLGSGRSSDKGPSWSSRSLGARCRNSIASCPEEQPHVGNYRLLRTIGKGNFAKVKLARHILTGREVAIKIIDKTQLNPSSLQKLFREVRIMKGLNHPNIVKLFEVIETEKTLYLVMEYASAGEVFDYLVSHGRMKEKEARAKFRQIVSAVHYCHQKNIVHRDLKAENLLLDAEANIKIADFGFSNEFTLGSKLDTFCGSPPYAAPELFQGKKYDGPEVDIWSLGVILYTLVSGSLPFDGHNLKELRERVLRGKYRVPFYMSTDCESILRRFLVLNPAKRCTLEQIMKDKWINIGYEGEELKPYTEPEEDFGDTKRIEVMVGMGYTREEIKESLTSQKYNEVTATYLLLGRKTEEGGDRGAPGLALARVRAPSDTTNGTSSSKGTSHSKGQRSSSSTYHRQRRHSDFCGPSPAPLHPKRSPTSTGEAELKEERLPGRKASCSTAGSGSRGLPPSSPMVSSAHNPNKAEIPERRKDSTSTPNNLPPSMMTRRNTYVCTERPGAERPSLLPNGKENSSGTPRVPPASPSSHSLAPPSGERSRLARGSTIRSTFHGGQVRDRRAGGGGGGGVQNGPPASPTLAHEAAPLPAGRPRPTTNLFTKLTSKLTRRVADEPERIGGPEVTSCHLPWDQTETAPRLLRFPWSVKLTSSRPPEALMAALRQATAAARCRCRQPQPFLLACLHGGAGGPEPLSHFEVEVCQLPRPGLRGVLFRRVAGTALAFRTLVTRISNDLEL

The target of test [3] is T3, Serine/threonine-protein kinase STK11 (Homo sapiens, UniProt Q15831).
T3 sequence (Q15831 whole entry): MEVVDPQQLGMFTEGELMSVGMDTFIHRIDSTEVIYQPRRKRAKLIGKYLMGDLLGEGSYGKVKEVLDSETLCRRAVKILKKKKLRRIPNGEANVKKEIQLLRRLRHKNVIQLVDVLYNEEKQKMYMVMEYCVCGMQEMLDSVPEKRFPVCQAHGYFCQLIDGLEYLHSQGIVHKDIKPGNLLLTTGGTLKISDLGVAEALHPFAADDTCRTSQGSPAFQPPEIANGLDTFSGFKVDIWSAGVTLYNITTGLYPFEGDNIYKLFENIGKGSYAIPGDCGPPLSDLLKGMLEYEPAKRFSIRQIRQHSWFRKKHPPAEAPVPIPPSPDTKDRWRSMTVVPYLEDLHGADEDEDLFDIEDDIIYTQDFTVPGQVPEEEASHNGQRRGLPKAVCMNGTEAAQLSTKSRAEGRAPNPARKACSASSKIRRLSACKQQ

The target in test [4] is T4, Ephrin type-B receptor 4 (Homo sapiens, UniProt P54760).
T4 sequence (P54760 whole entry): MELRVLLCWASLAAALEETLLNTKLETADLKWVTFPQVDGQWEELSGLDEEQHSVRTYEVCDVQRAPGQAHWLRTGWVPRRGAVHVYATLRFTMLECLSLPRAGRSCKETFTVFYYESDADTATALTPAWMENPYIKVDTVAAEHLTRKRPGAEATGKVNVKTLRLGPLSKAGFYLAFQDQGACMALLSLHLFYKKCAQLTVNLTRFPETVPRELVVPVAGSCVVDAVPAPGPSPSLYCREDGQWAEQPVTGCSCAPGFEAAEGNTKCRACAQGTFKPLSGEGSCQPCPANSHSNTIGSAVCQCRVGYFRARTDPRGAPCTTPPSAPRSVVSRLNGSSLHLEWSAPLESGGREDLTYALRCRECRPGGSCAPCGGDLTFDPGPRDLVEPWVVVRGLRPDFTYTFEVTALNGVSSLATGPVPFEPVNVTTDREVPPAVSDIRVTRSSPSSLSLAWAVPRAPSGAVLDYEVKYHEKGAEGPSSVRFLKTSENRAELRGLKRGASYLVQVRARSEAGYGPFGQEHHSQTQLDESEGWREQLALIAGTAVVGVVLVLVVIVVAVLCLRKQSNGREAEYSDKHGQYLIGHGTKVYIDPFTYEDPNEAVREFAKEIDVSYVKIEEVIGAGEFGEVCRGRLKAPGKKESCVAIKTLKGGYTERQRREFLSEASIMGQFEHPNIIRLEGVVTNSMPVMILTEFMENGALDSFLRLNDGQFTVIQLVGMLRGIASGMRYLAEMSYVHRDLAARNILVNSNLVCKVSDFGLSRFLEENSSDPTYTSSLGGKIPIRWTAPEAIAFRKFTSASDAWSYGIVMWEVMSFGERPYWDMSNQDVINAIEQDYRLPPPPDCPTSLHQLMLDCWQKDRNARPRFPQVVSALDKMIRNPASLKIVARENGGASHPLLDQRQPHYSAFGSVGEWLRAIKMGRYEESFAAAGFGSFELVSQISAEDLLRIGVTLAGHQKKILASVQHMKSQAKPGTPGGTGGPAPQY

Test [5] deals with Cyclin-dependent kinase 4 (Homo sapiens, UniProt P11802).
The target of test [6] is T5, Heme oxygenase 2 (Homo sapiens, UniProt P30519).
T5 sequence (P30519 whole entry): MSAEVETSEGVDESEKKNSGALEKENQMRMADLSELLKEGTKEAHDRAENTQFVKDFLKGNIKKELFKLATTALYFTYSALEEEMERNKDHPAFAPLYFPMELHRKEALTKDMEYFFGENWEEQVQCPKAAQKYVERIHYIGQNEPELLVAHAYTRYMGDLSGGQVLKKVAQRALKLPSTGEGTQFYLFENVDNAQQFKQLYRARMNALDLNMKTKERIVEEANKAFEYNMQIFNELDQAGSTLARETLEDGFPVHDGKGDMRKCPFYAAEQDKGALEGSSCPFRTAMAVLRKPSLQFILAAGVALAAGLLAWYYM

Test [7] has as its target Casein kinase I isoform alpha (Homo sapiens, UniProt P48729).
Test [8] deals with Myosin-14 (Homo sapiens, UniProt Q7Z406).

Calls of active or inactive are those of the source. Some results are limits rather than exact numbers.
Note: in the data inactive means no Kd found up to 30 µM.

Chain of Cyclin-dependent kinase 4 (P11802 whole entry): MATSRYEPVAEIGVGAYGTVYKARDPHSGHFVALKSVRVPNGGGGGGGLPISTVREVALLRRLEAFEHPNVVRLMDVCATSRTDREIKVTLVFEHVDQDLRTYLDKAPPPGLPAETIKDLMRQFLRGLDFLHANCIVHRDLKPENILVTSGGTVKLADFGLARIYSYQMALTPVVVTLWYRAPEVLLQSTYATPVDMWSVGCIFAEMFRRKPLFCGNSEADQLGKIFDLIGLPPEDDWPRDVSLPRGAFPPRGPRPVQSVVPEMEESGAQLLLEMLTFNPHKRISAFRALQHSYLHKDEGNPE
Chain of Casein kinase I isoform alpha (P48729 whole entry, canonical isoform): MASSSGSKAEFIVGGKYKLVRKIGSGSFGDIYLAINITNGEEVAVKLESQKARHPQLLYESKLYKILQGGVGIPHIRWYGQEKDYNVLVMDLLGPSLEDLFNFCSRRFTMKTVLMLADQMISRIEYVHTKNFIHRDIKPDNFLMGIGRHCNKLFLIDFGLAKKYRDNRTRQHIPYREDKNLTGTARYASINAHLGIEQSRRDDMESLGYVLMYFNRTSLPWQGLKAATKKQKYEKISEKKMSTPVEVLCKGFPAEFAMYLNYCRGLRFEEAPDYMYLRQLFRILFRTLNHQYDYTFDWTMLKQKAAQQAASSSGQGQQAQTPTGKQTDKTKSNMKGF
Chain of Myosin-14 (Q7Z406 whole entry): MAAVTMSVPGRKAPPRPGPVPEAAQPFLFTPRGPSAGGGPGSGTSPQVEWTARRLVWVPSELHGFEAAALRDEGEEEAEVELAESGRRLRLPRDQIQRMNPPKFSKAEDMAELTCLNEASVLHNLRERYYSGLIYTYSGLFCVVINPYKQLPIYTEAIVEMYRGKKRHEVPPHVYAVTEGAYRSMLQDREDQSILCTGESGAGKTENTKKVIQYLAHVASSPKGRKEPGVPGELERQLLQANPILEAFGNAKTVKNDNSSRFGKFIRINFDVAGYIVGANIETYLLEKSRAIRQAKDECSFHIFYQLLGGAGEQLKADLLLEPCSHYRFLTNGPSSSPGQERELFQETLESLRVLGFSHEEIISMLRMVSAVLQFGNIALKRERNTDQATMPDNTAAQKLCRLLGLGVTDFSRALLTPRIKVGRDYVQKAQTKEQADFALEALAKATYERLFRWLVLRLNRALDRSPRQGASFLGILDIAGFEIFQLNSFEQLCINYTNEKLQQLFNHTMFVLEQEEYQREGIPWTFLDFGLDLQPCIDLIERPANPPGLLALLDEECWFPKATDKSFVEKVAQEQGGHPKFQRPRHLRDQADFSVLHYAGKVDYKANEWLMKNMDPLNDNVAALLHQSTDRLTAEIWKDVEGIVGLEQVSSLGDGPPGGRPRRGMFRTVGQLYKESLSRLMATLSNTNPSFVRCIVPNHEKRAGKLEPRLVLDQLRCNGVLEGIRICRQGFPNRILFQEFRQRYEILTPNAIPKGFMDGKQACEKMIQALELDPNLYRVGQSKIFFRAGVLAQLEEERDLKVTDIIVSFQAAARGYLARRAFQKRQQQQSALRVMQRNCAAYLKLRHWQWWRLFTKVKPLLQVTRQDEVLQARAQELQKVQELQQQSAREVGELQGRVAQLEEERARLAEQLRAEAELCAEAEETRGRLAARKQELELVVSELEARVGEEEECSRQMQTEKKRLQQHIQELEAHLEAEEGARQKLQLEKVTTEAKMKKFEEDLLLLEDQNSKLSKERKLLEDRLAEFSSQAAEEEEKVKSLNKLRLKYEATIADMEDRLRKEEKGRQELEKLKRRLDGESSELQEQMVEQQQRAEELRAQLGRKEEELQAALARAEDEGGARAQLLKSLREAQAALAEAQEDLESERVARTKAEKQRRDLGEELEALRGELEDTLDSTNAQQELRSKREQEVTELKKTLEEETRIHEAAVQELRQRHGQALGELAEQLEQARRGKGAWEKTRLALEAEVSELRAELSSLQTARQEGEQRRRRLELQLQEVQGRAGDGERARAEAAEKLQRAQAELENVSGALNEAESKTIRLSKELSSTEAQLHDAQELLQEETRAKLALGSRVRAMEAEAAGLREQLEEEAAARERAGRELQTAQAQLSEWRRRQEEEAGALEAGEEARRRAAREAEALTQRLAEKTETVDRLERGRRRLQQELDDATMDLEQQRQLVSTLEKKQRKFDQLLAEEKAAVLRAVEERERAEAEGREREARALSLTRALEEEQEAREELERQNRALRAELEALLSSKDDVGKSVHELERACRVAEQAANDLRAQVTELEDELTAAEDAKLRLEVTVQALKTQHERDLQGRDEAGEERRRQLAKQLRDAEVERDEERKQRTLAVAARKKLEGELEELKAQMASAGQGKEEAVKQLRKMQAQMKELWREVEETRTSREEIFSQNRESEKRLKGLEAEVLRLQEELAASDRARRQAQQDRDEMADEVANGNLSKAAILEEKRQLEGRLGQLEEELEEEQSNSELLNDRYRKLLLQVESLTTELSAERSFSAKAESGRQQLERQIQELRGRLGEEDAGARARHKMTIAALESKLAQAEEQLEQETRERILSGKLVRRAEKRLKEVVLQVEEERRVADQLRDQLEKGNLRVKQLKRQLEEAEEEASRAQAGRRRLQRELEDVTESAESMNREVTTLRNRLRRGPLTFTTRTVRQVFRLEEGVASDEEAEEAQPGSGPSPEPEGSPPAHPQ

As for `CC[C@@H]1C(=O)N(C)c2cnc(Nc3ccc(C(=O)N[C@H]4CC[C@H](N5CCN(CC6CC6)CC5)CC4)cc3OC)nc2N1C(C)C` [VOLASERTIB], the dissociation constant Kd was 0.286 µM (active) in test [1]; > 30 µM (inactive) in test [2]; > 30 µM (inactive) in test [3]; > 30 µM (inactive) in test [4]; > 30 µM (inactive) in test [5]; > 30 µM (inactive) in test [6]. The Kd in test [7] and in test [8] was > 30 µM (inactive) in each case.
With `Cn1ncc(Cl)c1-c1cc(C(=O)N[C@H](CN)Cc2cccc(F)c2)sc1Cl` [AFURESERTIB], the Kd in test [1], in test [2], in test [3], in test [4], in test [5] and in test [6] was > 30 µM (inactive) throughout. The Kd in test [7] and in test [8] was > 30 µM (inactive) each time.
Consider `Cc1cc2c(F)c(Oc3ncnn4cc(OC[C@@H](C)OC(=O)[C@H](C)N)c(C)c34)ccc2[nH]1` [BRIVANIB ALANINATE], for which the Kd in test [1], in test [2], in test [3], in test [4], in test [5] and in test [6] was > 30 µM (inactive) in each case. Also, the Kd in test [7] and in test [8] was > 30 µM (inactive) throughout.
Consider `CN1CCC(CNc2ccc3ncc(-c4cccc(OC(F)(F)F)c4)n3n2)CC1` [SGI-1776], for which the Kd in test [1], in test [2], in test [3], in test [4], in test [5] and in test [6] was > 30 µM (inactive) throughout. Further, the Kd in test [7] and in test [8] was > 30 µM (inactive) throughout.
Consider `COC(=O)N[C@@H](C)CNc1nccc(-c2cn(C(C)C)nc2-c2cc(Cl)cc(NS(C)(=O)=O)c2F)n1` [ENCORAFENIB], for which the Kd in test [1] was > 30 µM (inactive); in test [2] it was > 30 µM (inactive); in test [3], > 30 µM (inactive); in test [4] it was > 30 µM (inactive); in test [5], 0.112 µM (active); in test [6] it was > 30 µM (inactive). Besides, the Kd in test [7] is 3.33 µM (active); in test [8] it was > 30 µM (inactive).
For the compound `O=c1sn(-c2cccc3ccccc23)c(=O)n1Cc1ccccc1` [TIDEGLUSIB], the Kd in test [1], in test [2], in test [3], in test [4], in test [5] and in test [6] was > 30 µM (inactive) in each case. The Kd in test [7] and in test [8] was > 30 µM (inactive) in each case.
As to `COC(=O)[C@@]1(O)C[C@H]2O[C@]1(C)n1c3ccccc3c3c4c(c5c6ccccc6n2c5c31)C(=O)NC4` [K-252A], the Kd in test [1] is > 30 µM (inactive); in test [2], 0.028 µM (active); in test [3], > 30 µM (inactive); in test [4], > 30 µM (inactive); in test [5], 0.014 µM; in test [6], > 30 µM (inactive). In addition, the Kd in test [7] and in test [8] was > 30 µM (inactive) in each case.
On to `O=C(c1ccc(F)c(F)c1Nc1ccc(I)cc1F)N1CC(O)([C@@H]2CCCCN2)C1` [COBIMETINIB], for which the Kd in test [1], in test [2], in test [3], in test [4], in test [5] and in test [6] was > 30 µM (inactive) each time. Besides, the Kd in test [7] and in test [8] was > 30 µM (inactive) throughout.
`C1=C/COCc2cc(ccc2OCCN2CCCC2)Nc2nccc(n2)-c2cccc(c2)COC/1` [PACRITINIB]: the Kd in test [1] was > 30 µM (inactive); in test [2], > 30 µM (inactive); in test [3], 0.003 µM; in test [4], > 30 µM (inactive); in test [5], > 30 µM (inactive); in test [6], > 30 µM (inactive). Further, the Kd in test [7] and in test [8] was > 30 µM (inactive) throughout.
